From patent US8562949B2, “Radiolabeled dihydrotetrabenazine derivatives and their use as imaging agents” (The Trustees of the University of Pennsylvania, priority 2006, dated 2013)
Where “and” joins values, the source holds several entries; their conditions need not be identical. Equal values may be shown once.

Columns and labels:
islet cell homogenates = assay: In vitro binding to islet cell homogenates (FIG. 8)
[1] = Baboon microPET imaging (FIG. 7); assay type: in vivo; settings: iv, 7 mCi, 70-90 min
[2] = Biodistribution of [18F]6a and [18F]6b in normal mice (iv injection); assay type: in vivo, ICR mice
Protocol: While under isoflurane anesthesia, 0.15 mL of a 0.1% bovine serum albumin solution containing [^18F]tracers (10-20 μCi) were injected directly into the tail vein of ICR mice (22-25 g, male) The mice (n=3 for each time point) were sacrificed by cervical dislocation at indicated time points post injection. The organs of interest were removed and weighed, and the radioactivity was counted with an automatic gamma counter. The percentage dose per organ was calculated by a comparison of the tissue counts to suitably diluted aliquots of the injected material. Total activities of blood were calculated under the assumption that they were 7% of the total body weight. The % dose/g of samples was calculated by comparing the sample counts with the count of the diluted initial dose.

## COc1cc2c(cc1OCCC[18F])CCN1C[C@@H](CC(C)C)[C@H](O)C[C@H]21 [[^18F]-(+)-6b]
Islet cell homogenates
  binding to islet cell homogenates: specific and saturable
[1]
  microPET uptake: no indication of skull (bone) uptake

## COc1cc2c(cc1OCCC[18F])CCN1CC(CC(C)C)C(O)CC21 (racemic) [[^18F]6b]
[2]; 30 min p.i., normal mice
  remaining in brain (brain washout): 13%
[2]; mice, iv, 2 min
  brain uptake: 7.08 % ID/g
[2]; mice, iv, time not stated
  ST/CB ratio: 3.0
[2]; normal mice, iv, 2 min
  Organ distribution Blood: 2.60 ± 0.31 % dose/g
  Organ distribution Bone: 2.70 ± 0.44 % dose/g
  Organ distribution Brain: 7.08 % dose/g and 7.08 ± 2.17 % dose/g
  Organ distribution Heart: 6.79 ± 1.49 % dose/g
  Organ distribution Kidney: 16.1 ± 3.13 % dose/g
  Organ distribution Liver: 24.1 ± 4.93 % dose/g
  Organ distribution Lung: 7.97 ± 1.46 % dose/g
  Organ distribution Muscle: 1.17 ± 0.16 % dose/g
  Organ distribution Skin: 1.13 ± 0.25 % dose/g
  Organ distribution Spleen: 9.19 ± 0.26 % dose/g
  Ratio (vs CB) Cortex: 1.32
  Ratio (vs CB) Hippocampus: 1.13
  Ratio (vs CB) Striatum: 1.36
  Regional brain distribution Cerebellum (CB): 6.26 ± 2.89 % dose/g
  Regional brain distribution Cortex: 8.25 ± 2.51 % dose/g
  Regional brain distribution Hippocampus: 7.07 ± 1.66 % dose/g
  Regional brain distribution Striatum: 8.49 ± 1.12 % dose/g
[2]; normal mice, iv, 15 min
  Organ distribution Blood: 1.75 ± 0.07 % dose/g
  Organ distribution Bone: 3.65 ± 0.49 % dose/g
  Organ distribution Brain: 2.01 ± 0.10 % dose/g
  Organ distribution Heart: 2.43 ± 0.16 % dose/g
  Organ distribution Kidney: 5.90 ± 0.25 % dose/g
  Organ distribution Liver: 15.8 ± 1.65 % dose/g
  Organ distribution Lung: 3.58 ± 0.33 % dose/g
  Organ distribution Muscle: 1.16 ± 0.35 % dose/g
  Organ distribution Skin: 1.15 ± 0.16 % dose/g
  Organ distribution Spleen: 3.38 ± 0.49 % dose/g
  Ratio (vs CB) Cortex: 1.00
  Ratio (vs CB) Hippocampus: 1.31
  Ratio (vs CB) Striatum: 2.53
  Regional brain distribution Cerebellum (CB): 1.63 ± 0.05 % dose/g
  Regional brain distribution Cortex: 1.62 ± 0.05 % dose/g
  Regional brain distribution Hippocampus: 2.14 ± 0.16 % dose/g
  Regional brain distribution Striatum: 4.12 ± 0.52 % dose/g
[2]; normal mice, iv, 30 min
  Organ distribution Blood: 1.92 ± 0.22 % dose/g
  Organ distribution Bone: 9.62 ± 3.42 % dose/g
  Organ distribution Brain: 1.76 ± 0.27 % dose/g
  Organ distribution Heart: 2.67 ± 0.26 % dose/g
  Organ distribution Kidney: 6.80 ± 0.65 % dose/g
  Organ distribution Liver: 17.3 ± 2.00 % dose/g
  Organ distribution Lung: 3.46 ± 0.36 % dose/g
  Organ distribution Muscle: 1.53 ± 0.16 % dose/g
  Organ distribution Skin: 2.22 ± 0.20 % dose/g
  Organ distribution Spleen: 3.40 ± 0.43 % dose/g
  Ratio (vs CB) Cortex: 1.11
  Ratio (vs CB) Hippocampus: 1.97
  Ratio (vs CB) Striatum: 3.0 and 2.95
  Regional brain distribution Cerebellum (CB): 1.30 ± 0.19 % dose/g
  Regional brain distribution Cortex: 1.45 ± 0.38 % dose/g
  Regional brain distribution Hippocampus: 2.55 ± 1.20 % dose/g
  Regional brain distribution Striatum: 3.84 ± 1.05 % dose/g
[2]; normal mice, iv, 30 min, listed as [^1F]6b
  Organ distribution Bone: 9.62 % dose/g
[2]; normal mice, iv, 1 hr
  Organ distribution Blood: 1.04 ± 0.07 % dose/g
  Organ distribution Bone: 16.6 ± 1.60 % dose/g
  Organ distribution Brain: 0.91 ± 0.25 % dose/g
  Organ distribution Heart: 1.74 ± 0.14 % dose/g
  Organ distribution Kidney: 3.63 ± 0.30 % dose/g
  Organ distribution Liver: 10.4 ± 0.95 % dose/g
  Organ distribution Lung: 2.15 ± 0.12 % dose/g
  Organ distribution Muscle: 1.05 ± 0.41 % dose/g
  Organ distribution Skin: 1.38 ± 0.03 % dose/g
  Organ distribution Spleen: 2.05 ± 0.05 % dose/g
  Ratio (vs CB) Cortex: 1.10
  Ratio (vs CB) Hippocampus: 1.35
  Ratio (vs CB) Striatum: 2.71
  Regional brain distribution Cerebellum (CB): 0.77 ± 0.06 % dose/g
  Regional brain distribution Cortex: 0.85 ± 0.12 % dose/g
  Regional brain distribution Hippocampus: 1.04 ± 0.16 % dose/g
  Regional brain distribution Striatum: 2.08 ± 0.27 % dose/g
[2]; normal mice, iv, 2 hr
  Organ distribution Blood: 0.56 ± 0.07 % dose/g
  Organ distribution Bone: 17.8 ± 1.83 % dose/g
  Organ distribution Brain: 0.53 ± 0.05 % dose/g
  Organ distribution Heart: 1.02 ± 0.09 % dose/g
  Organ distribution Kidney: 2.40 ± 0.51 % dose/g
  Organ distribution Liver: 8.53 ± 1.73 % dose/g
  Organ distribution Lung: 1.40 ± 0.09 % dose/g
  Organ distribution Muscle: 0.56 ± 0.11 % dose/g
  Organ distribution Skin: 1.24 ± 0.53 % dose/g
  Organ distribution Spleen: 1.15 ± 0.41 % dose/g
  Ratio (vs CB) Cortex: 0.91
  Ratio (vs CB) Hippocampus: 1.12
  Ratio (vs CB) Striatum: 1.94
  Regional brain distribution Cerebellum (CB): 0.45 ± 0.01 % dose/g
  Regional brain distribution Cortex: 0.41 ± 0.06 % dose/g
  Regional brain distribution Hippocampus: 0.50 ± 0.06 % dose/g
  Regional brain distribution Striatum: 0.87 ± 0.24 % dose/g
